Measured values from patent publication US10292968B2, “Substituted heterocycles as bromodomain inhibitors” (Zenith Epigenetics Ltd., priority 2014, dated 2019).
Where a name gives a salt, the structure may show the parent alone.

Key:
[1] = tested on: cMYC; assay: Inhibition of cMYC expression (mRNA, real-time PCR) in MV4-11 cells; assay type: cell-based; settings: Human AML MV4-11 cells, 3 h; for IC50: read-out: c-myc activity
Method: MV4-11 cells (CRL-9591) were plated at a density of 2.5×10^4 cells per well in 96 well U-bottom plates and treated with increasing concentrations of test compound or DMSO (0.1%) in IMDM media containing 10% FBS and penicillin/streptomycin, and incubated for 3 h at 37° C. Triplicate wells were used for each concentration. Cells were pelleted by centrifugation and harvested using the mRNA Catcher PLUS kit according to manufacturer's instructions. The eluted mRNA isolated was then used in a one-step quantitative real-time PCR reaction, using components of the RNA UltraSense™ One-Step Kit (Life Technologies) together with Applied Biosystems TaqMan® primer-probes for cMYC and Cyclophilin. Real-time PCR plates were run on a ViiA™7 real time PCR machine (Applied Biosystems), data was analyzed, normalizing the Ct values for cMYC to an internal control, prior to determining the fold expression of each sample, relative to the control.

[2] = molecular target: T1, Brd 4 bromodomain 2 (BRD4(2)) (Homo sapiens, UniProt O60885); assay: AlphaScreen inhibition of tetra-acetylated histone H4 binding to BRD4(2); settings: BRD4(2) at 100 nM, tetra-acetylated histone H4 peptide, 30 min incubation; for IC50: read-out: Alpha Screen BRD4(2)
T1 construct: N-terminally His-tagged bromodomains (BRD4(1) at 20 nM and BRD4(2) at 100 nM); made in house; host or cells: E. coli BL21(DE3)
Method: (§1) Proteins were cloned and overexpressed with a N-terminal 6×His tag, then purified by nickel affinity followed by size exclusion chromatography. Briefly, E. coli BL21(DE3) cells were transformed with a recombinant expression vector encoding N-terminally Nickel affinity tagged bromodomains from Brd2, Brd3, Brd4. Cell cultures were incubated at 37° C. with shaking to the appropriate density and induced overnight with IPTG. The supernatant of lysed cells was loaded onto Ni-IDA column for purification. Eluted protein was pooled, concentrated and further purified by size exclusion chromatography. Fractions representing monomeric protein were pooled, concentrated, aliquoted, and frozen at −80° C. for use in subsequent experiments.
(§2) Binding of tetra-acetylated histone H4 peptide (Millipore) and BET bromodomains was confirmed by Amplified Luminescent Proximity Homogenous Assay (AlphaScreen). N-terminally His-tagged bromodomains (BRD4(1) at 20 nM and BRD4(2) at 100 nM) and biotinylated tetra-acetylated histone H4 (10-25 nM) were incubated in the presence of nickel chelate acceptor beads and streptavidin donor beads (PerkinAlmer, 6760000K) added to a final concentration of 2 μg/ml under green light in a white 96 well microtiter plate (Greiner). For inhibition assays, serially diluted compounds were added to the reaction mixtures in a 0.1% final concentrations of DMSO. Final buffer concentrations were 50 mM HEPES, 100 mM NaCl and 0.1% BSA buffer, pH 7.4 and optimized to 30 min incubation time. Assay plates were read at 570 nm on a Synergy H4 Plate Reader (Biotek). IC50 values were determined from a dose response curve.

[3] = tested on: MV4-11 cells; assay: Inhibition of cell proliferation in MV4-11 cells (Cell Titer Aqueous One); assay type: cell-based; settings: Human AML MV-4-11 cells, 72 h; for IC50: MV4-11
Method: MV4-11 cells (CRL-9591) were plated at a density of 5×10^4 cells per well in 96 well flat bottom plates and treated with increasing concentrations of test compound or DMSO (0.1%) in IMDM media containing 10% FBS and penicillin/streptomycin. Triplicate wells were used for each concentration and a well containing only media was used as a control. Plates were incubated at 37° C., 5% CO2 for 72 h before adding 20 μL of the Cell Titer Aqueous One Solution (Promega) to each well and incubated at 37° C., 5% CO2 for an additional 3-4 h. The absorbance was read at 490 nm in a spectrophotometer and the percentage of cell titer relative to DMSO-treated cells was calculated after correcting for background by subtracting the blank well's signal. IC50 values were calculated using the GraphPad Prism software.

[4] = molecular target: T2, Brd4 bromodomain 1 (BRD4(1)) (Homo sapiens, UniProt O60885); assay: AlphaScreen inhibition of tetra-acetylated histone H4 binding to BRD4(1); settings: BRD4(1) at 20 nM, tetra-acetylated histone H4 peptide, 30 min incubation; for IC50: read-out: Alpha Screen BRD4(1)
T2 construct: N-terminally His-tagged bromodomains (BRD4(1) at 20 nM and BRD4(2) at 100 nM); made in house; host or cells: E. coli BL21(DE3)
Method: as §1, §2

Row | IC50 [2] | IC50 [4] | Alpha Screen BRD4(2) [2] | Structure (SMILES) | also measured
1 | 0.3 to 3 µM | ≤ 0.3 µM |  | Cc1noc2ccc(-c3[nH]c(-c4ccccc4)nc3-c3n[nH]c(=O)n3C3CC3)cc12 [Example 16, 4-cyclopropyl-3-(5-(3-methylbenzo[d]isoxazol-5-yl)-2-phenyl-1H-imidazol-4-yl)-1H-1,2,4-triazol-5(4H)-one] | 
2 |  |  | Not Active | Cn1ncc2ccc(-c3[nH]c(-c4ccccc4)nc3-c3n[nH]c(=O)n3CC3CC3)cc21 [Example 17, 4-(cyclopropylmethyl)-3-(5-(1-methyl-1H-indazol-6-yl)-2-phenyl-1H-imidazol-4-yl)-1H-1,2,4-triazol-5(4H)-one] | Alpha Screen BRD4(1) [4]: Not Active
3 | 3 to 30 µM | 0.3 to 3 µM |  | CC(C)Cn1c(-c2nc(-c3ccccc3)[nH]c2-c2ccc3cnn(C)c3c2)n[nH]c1=O [Example 18, 4-isobutyl-3-(5-(1-methyl-1H-indazol-6-yl)-2-phenyl-1H-imidazol-4-yl)-1H-1,2,4-triazol-5(4H)-one] | c-myc activity [1]: Not Active
4 | 3 to 30 µM | 0.3 to 3 µM |  | Cn1ncc2ccc(-c3[nH]c(-c4ccccc4)nc3-c3n[nH]c(=O)n3C3CCC3)cc21 [Example 19, 4-cyclobutyl-3-(5-(1-methyl-1H-indazol-6-yl)-2-phenyl-1H-imidazol-4-yl)-1H-1,2,4-triazol-5(4H)-one] | IC50 [1]: 3 to 30 µM
5 | 3 to 30 µM | 0.3 to 3 µM |  | Cn1ncc2ccc(-c3[nH]c(-c4ccccc4)nc3-c3n[nH]c(=O)n3CC(C)(C)C)cc21 [Example 20, 3-(5-(1-methyl-1H-indazol-6-yl)-2-phenyl-1H-imidazol-4-yl)-4-neopentyl-1H-1,2,4-triazol-5(4H)-one] | 
6 |  | 3 to 30 µM | Not Active | Cn1ncc2ccc(-c3[nH]c(-c4ccccc4)nc3-c3n[nH]c(=O)n3C3CCCC3)cc21 [Example 21, 4-cyclopentyl-3-(5-(1-methyl-1H-indazol-6-yl)-2-phenyl-1H-imidazol-4-yl)-1H-1,2,4-triazol-5(4H)-one] | 
7 | 3 to 30 µM | 3 to 30 µM |  | CC(C)n1c(-c2nc(-c3ccccc3)[nH]c2-c2ccc3cnn(C)c3c2)n[nH]c1=O [Example 22, 4-isopropyl-3-(5-(1-methyl-1H-indazol-6-yl)-2-phenyl-1H-imidazol-4-yl)-1H-1,2,4-triazol-5(4H)-one] | 
8 | 3 to 30 µM | ≤ 0.3 µM |  | Cn1ncc2ccc(-c3[nH]c(-c4ccncc4)nc3-c3n[nH]c(=O)n3C3CC3)cc21 [Example 23, 4-cyclopropyl-3-(5-(1-methyl-1H-indazol-6-yl)-2-(pyridin-4-yl)-1H-imidazol-4-yl)-1H-1,2,4-triazol-5(4H)-one dihydrochloride] | 
9 | 3 to 30 µM | 3 to 30 µM |  | Cn1ncc2ccc(-c3[nH]c(-c4cccnc4)nc3-c3n[nH]c(=O)n3C3CC3)cc21 [Example 24, 4-cyclopropyl-3-(5-(1-methyl-1H-indazol-6-yl)-2-(pyridin-3-yl)-1H-imidazol-4-yl)-1H-1,2,4-triazol-5(4H)-one dihydrochloride] | 
10 | 3 to 30 µM | 0.3 to 3 µM |  | Cn1cc(-c2nc(-c3n[nH]c(=O)n3C3CC3)c(-c3ccc4cnn(C)c4c3)[nH]2)cn1 [Example 25, 4-cyclopropyl-3-(5-(1-methyl-1H-indazol-6-yl)-2-(1-methyl-1H-pyrazol-4-yl)-1H-imidazol-4-yl)-1H-1,2,4-triazol-5(4H)-one hydrochloride] | 
11 | 3 to 30 µM | 3 to 30 µM |  | Cn1ncc2ccc(-c3[nH]c(-c4cn[nH]c4)nc3-c3n[nH]c(=O)n3C3CC3)cc21 [Example 26, 4-cyclopropyl-3-(5-(1-methyl-1H-indazol-6-yl)-2-(1H-pyrazol-4-yl)-1H-imidazol-4-yl)-1H-1,2,4-triazol-5(4H)-one hydrochloride] | 
12 |  | 3 to 30 µM | Not Active | Cn1nc(-c2nc(-c3ccccc3)[nH]c2-c2ccc3cnn(C)c3c2)n(C2CC2)c1=O [Example 27, 4-cyclopropyl-1-methyl-3-(5-(1-methyl-1H-indazol-6-yl)-2-phenyl-1H-imidazol-4-yl)-1H-1,2,4-triazol-5(4H)-one hydrochloride] | 

The next lines start with the compound.

Row | Structure (SMILES) | IC50 [2] | IC50 [4] | Alpha Screen BRD4(2) [2] | also measured
13 | COC(=O)c1ccc(C)c(-c2[nH]c(-c3ccccc3)nc2-c2n[nH]c(=O)n2C2CC2)c1 [Example 2, methyl 3-(4-(4-cyclopropyl-5-oxo-4,5-dihydro-1H-1,2,4-triazol-3-yl)-2-phenyl-1H-imidazol-5-yl)-4-methyl benzoate hydrochloride] | 3 to 30 µM | 3 to 30 µM |  | c-myc activity [1]: Not Active; Cell Proliferation activity [3]: Not Active
14 | CNC(=O)c1cccc(-c2[nH]c(-c3ccccc3)nc2-c2n[nH]c(=O)n2C2CC2)c1 [Example 3, 3-(4-(4-cyclopropyl-5-oxo-4,5-dihydro-1H-1,2,4-triazol-3-yl)-2-phenyl-1H-imidazol-5-yl)-N-methyl benzamide hydrochloride] | 3 to 30 µM | 3 to 30 µM |  | 
15 | NC(=O)c1cccc(-c2[nH]c(-c3ccccc3)nc2-c2n[nH]c(=O)n2C2CC2)c1 [Example 4, 3-(4-(4-cyclopropyl-5-oxo-4,5-dihydro-1H-1,2,4-triazol-3-yl)-2-phenyl-1H-imidazol-5-yl) benzamide hydrochloride] |  | 3 to 30 µM | Not Active | IC50 [1]: 3 to 30 µM; IC50 [3]: 3 to 30 µM
16 | O=C1CCc2ccc(-c3[nH]c(-c4ccccc4)nc3-c3n[nH]c(=O)n3C3CC3)cc21 [Example 5, 4-cyclopropyl-3-(5-(3-oxo-2,3-dihydro-1H-inden-5-yl)-2-phenyl-1H-imidazol-4-yl)-1H-1,2,4-triazol-5(4H)-one hydrochloride] |  |  | Not Active | Alpha Screen BRD4(1) [4]: Not Active
17 | CCC(=O)c1cccc(-c2[nH]c(-c3ccccc3)nc2-c2n[nH]c(=O)n2C2CC2)c1 [Example 6, 4-cyclopropyl-3-(2-phenyl-5-(3-propionylphenyl)-1H-imidazol-4-yl)-1H-1,2,4-triazol-5(4H)-one hydrochloride] | 3 to 30 µM | 0.3 to 3 µM |  | IC50 [1]: 3 to 30 µM; IC50 [3]: 3 to 30 µM
18 | CC(=O)c1ccc(C)c(-c2[nH]c(-c3ccccc3)nc2-c2n[nH]c(=O)n2C2CC2)c1 [Example 11, 3-(5-(5-acetyl-2-methylphenyl)-2-phenyl-1H-imidazol-4-yl)-4-cyclopropyl-1H-1,2,4-triazol-5(4H)-one hydrochloride] |  | 3 to 30 µM | Not Active | 
19 | CC(=O)c1cncc(-c2[nH]c(-c3ccccc3)nc2-c2n[nH]c(=O)n2C2CC2)c1 [Example 12, 3-(5-(5-acetylpyridin-3-yl)-2-phenyl-1H-imidazol-4-yl)-4-cyclopropyl-1H-1,2,4-triazol-5(4H)-one formate] | 0.3 to 3 µM | 3 to 30 µM |  | 
20 | Cc1nn(C)c2ccc(-c3[nH]c(-c4ccccc4)nc3-c3n[nH]c(=O)n3C3CC3)cc12 [Example 15, 4-cyclopropyl-3-(5-(1,3-dimethyl-1H-indazol-5-yl)-2-phenyl-1H-imidazol-4-yl)-1H-1,2,4-triazol-5(4H)-one hydrochloride] | 3 to 30 µM | 0.3 to 3 µM |  | 
